Results from US20220073521A1, “PYRIMIDINE AND FIVE-MEMBERED NITROGEN HETEROCYCLE DERIVATIVE, PREPARATION METHOD THEREFOR, AND MEDICAL USES THEREOF” (Tuojie Biotech (Shanghai) Co., Ltd., priority 2018, published 2022).
Like-named read-outs stand apart in the source and are kept apart here.

Assays:
p-ERK in KYSE-520 cells = experiment: Determination of p-ERK in KYSE-520 cells (HTRF); type: cell-based
Description: KYSE-520 cells (Nanjing Cobioer Biosciences CO., Ltd.) in the logarithmic growth phase were inoculated (30,000 cells/well) in 1640 medium containing 10% of FBS, and adhered in a 96-well plate overnight (5% CO2, 37° C.). […] The cell culture was stopped with cell lysate. The level of phosphorylated ERK in KYSE-520 cells was determined by a method based on homogeneous time-resolved fluorescence HTRF (Cisbio, 64ERKPEG). The fluorescence values (Ex337 nm/Em625/665 nm) were read on the compatible HTRF reader (MD SpectraMax).

[1] = Pharmacokinetics assay in rats; type: in vivo, SD rats; settings: rat; for AUC: read-out: Area under curve AUC; for half-life: read-out: Half-life T1/2 (converted)
Description: Rats were used as test animals. The drug concentration in plasma at different time points was determined by LC/MS/MS method after intravenous administration or intragastrical administration of the compound of the present invention to rats. The pharmacokinetic behavior of the compound of the present invention was studied and evaluated in rats.
The atropisomer with a RT of 1.495 minutes in Examples 3 and 4, compounds of Example 17, Example 41 and Example 43.
Healthy male SD rats (6-8 weeks old), 3 rats per group.
Intravenous administration: A certain amount of the test compound was weighed, to which 10% by volume of N,N-dimethylacetamide, 33% by volume of triethylene glycol and 57% by volume of water were added to prepare a 1 mg/mL colorless, clear and transparent solution;
Intragastrical administration: A certain amount of the test compound was weighed, to which 0.5% by mass of hypromellose, 0.1% by volume of Tween 80 and 99.4% by volume of water were added to prepare a 1 mg/mL white suspension.
After an overnight fast, the SD rats were intravenously administered the test compound at an administration dose of 1 mg/kg, or intragastrically administered the test compound at an administration dose of 5 mg/kg.
(§1) The rats were intravenously administered the compound of the present invention. 0.2 ml of blood was taken from the jugular vein at 0.083, 0.25, 0.5, 1, 2, 4, 8 and 24 hours after the administration. The samples were placed in tubes containing EDTA-K2, and centrifuged at 4000 rpm and 4° C. for 5 minutes to separate the blood plasma. The plasma samples were stored at −75° C.
as §1, with “Or, the rats” for “The rats”, “were intragastrically” for “were intravenously”, “at” for “at 0.083,”
The content of the test compound in the plasma of rat after intragastrical administration of the test compound at different concentrations was determined: 50 μL of rat plasma at each time after administration was taken, to which 200 μL of a solution (50 ng/mL) of internal standard dexamethasone in acetonitrile was added. The plasma was vortex-mixed for 30 seconds, and centrifuged at 4700 rpm and 4° C. for 15 minutes. The supernatant was taken from the plasma samples, and a three-fold dilution was carried out by adding water. 2.0 μL of the supernatant was used for LC/MS/MS analysis.

KYSE-520 cells = experiment: KYSE-520 cell proliferation experiment (CellTiter-Glo, 7 days); type: cell-based; settings: Homo sapiens
Description: The treated cell plate was incubated at 37° C., 5% CO2 for 7 days. CellTiter-Glo (Promega, G7573) was used to determine the number of viable cells in each well of the treated plate. 100 μL of the detection reagent was added to each well, and the plate was incubated at room temperature for 10 minutes. Then, the […] in each well was measured with Envision plate reader (PerkinElmer). […] The IC50 value was further calculated as the compound concentration required for 50% proliferation inhibition in the best-fit curve with […].

[2] = target: T1, SHP2 wild-type phosphatase (recombinantly expressed full-length SHP2, aa 1-593) (Homo sapiens, UniProt Q06124); experiment: In vitro activity on SHP2 wild-type phosphatase (DiFMUP fluorescence); settings: wild-type full-length SHP2, activated polypeptide IRS1 0.5 nM, DiFMUP 30 μM;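 further: enzyme preincubated at room temperature, then DiFMUP reaction run at room temperature and halted with SDS, potency derived from a logistic curve fit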
T1 sequence (Q06124 1-593): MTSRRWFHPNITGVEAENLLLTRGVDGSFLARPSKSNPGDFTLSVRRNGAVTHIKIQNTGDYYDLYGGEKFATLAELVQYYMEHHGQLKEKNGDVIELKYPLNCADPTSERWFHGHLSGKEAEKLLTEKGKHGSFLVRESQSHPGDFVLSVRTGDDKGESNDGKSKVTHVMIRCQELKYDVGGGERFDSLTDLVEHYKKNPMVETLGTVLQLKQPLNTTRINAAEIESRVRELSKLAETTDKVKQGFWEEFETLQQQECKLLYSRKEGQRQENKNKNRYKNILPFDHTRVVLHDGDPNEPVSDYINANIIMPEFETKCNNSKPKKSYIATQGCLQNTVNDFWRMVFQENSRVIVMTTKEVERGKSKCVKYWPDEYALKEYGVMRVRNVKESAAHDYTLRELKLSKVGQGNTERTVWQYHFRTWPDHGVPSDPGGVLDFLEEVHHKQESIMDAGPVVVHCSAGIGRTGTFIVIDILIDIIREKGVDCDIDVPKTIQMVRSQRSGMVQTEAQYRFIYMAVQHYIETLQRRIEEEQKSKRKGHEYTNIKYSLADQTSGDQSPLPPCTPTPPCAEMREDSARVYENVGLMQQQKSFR

hERG potassium channel = target: T2, hERG potassium channel (Homo sapiens, UniProt Q12809); experiment: hERG current inhibition experiment (manual patch clamp, CHO hERG cells); type: cell-based; settings: whole-cell patch clamp, tail current
T2 construct: host or cells: CHO hERG cells
T2 sequence (Q12809 whole entry): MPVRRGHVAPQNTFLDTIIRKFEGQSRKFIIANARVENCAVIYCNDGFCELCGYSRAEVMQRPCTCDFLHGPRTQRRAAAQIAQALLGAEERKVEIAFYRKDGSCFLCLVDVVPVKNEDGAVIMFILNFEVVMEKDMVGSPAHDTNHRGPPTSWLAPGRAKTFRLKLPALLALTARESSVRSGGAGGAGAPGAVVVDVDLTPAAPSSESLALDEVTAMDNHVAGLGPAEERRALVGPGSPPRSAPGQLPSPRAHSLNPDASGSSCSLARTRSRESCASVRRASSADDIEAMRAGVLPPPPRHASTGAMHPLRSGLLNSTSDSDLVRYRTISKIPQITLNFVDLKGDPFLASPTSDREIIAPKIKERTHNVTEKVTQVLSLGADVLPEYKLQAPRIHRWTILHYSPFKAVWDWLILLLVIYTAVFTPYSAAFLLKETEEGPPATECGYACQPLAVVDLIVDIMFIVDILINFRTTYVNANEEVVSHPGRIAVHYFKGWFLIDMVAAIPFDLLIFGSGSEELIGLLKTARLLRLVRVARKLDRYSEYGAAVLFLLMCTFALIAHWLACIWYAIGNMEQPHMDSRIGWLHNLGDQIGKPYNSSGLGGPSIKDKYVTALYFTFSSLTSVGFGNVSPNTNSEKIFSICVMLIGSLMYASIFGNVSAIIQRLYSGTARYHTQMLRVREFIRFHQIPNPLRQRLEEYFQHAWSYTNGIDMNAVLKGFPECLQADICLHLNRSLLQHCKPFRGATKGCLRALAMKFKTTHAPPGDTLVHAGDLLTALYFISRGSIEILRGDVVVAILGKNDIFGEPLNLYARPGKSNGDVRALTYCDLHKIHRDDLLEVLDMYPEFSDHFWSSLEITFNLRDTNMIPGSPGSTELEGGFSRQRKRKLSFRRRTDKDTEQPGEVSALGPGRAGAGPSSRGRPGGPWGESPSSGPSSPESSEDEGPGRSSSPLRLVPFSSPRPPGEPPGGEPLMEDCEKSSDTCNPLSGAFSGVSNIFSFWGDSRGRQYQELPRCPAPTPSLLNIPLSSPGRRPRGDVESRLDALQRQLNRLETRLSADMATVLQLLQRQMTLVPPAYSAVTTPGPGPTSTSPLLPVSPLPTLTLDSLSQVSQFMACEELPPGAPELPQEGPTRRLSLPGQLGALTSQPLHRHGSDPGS
Description: In this experiment, whole-cell current recording was performed using a manual patch clamp system (HEKA EPC-10 signal amplification and digital conversion system, purchased from HEKA Electronic, Germany). The round glass slide of which surface CHO hERG cells (provided by Sophion Bioscience Inc., Denmark, the cell generation number was P21) were grown on was placed in an electrophysiological recording slot under an inverted microscope. The recording slot was continuously perfused with extracellular fluid (approximately 1 mL per minute). Conventional whole-cell patch clamp current recording technique was used in the experiment. The experiments were performed at normal room temperature (˜25° C.). The cells were clamped at a voltage of −80 mV. Cell patch clamp voltage was depolarized to +20 mV to activate hERG potassium channel, and to −50 mV after 5 seconds to eliminate inactivation and generate tail currents. The tail current peak was used as a value of hERG current. When the hERG potassium current recorded in the above steps became steady under continuous perfusion of the extracellular fluid in the recording slot, the drug to be tested could be added to the perfusion, until the inhibition effect of the drug on hERG current reached a steady state. Generally, the overlapping of most recent three consecutive current recording lines was used as a criterion to determine whether the state was stable. After reaching the steady state, the recording slot was perfused with extracellular fluid until the hERG current returned to the value before the drug adding. The test data was analyzed by HEKA Patchmaster (V2x73.2), Microsoft Excel and the data analysis software provided by Graphpad Prism 5.0.

IC50 (p-ERK in KYSE-520 cells; Homo sapiens, KYSE-520, 2 h) [nM] | IC50 [2] [nM] | SMILES | IC50 (KYSE-520 cells) [nM] | further results
8.6 | 2.6 | Nc1nc(N2CCC3(CC2)Cc2ncccc2[C@H]3N)n2ccnc2c1Sc1cccnc1C(F)(F)F [Example 28, (S)-1′-(7-Amino-8-((2-(trifluoromethyl)pyridin-3-yl)thio)imidazo[1,2-c]pyrimidin-5-yl)-5,7-dihydrospiro[cyclopenta[b]pyridine-6,4′-piperidin]-5-amine] | 21.6 | 
6.5 | 3.4 | N[C@@H]1c2ccccc2CC12CCN(c1ncc(Sc3cccnc3C(F)(F)F)c3nccn13)CC2 [Example 31, (S)-1′-(8-((2-(Trifluoromethyl)pyridin-3-yl)thio)imidazo[1,2-c]pyrimidin-5-yl)-1,3-dihydro spiro[indene-2,4′-piperidin]-1-amine] | 52 | 
5.4 | 2.8 | N[C@@H]1c2cccnc2CC12CCN(c1ncc(Sc3cccnc3C(F)(F)F)c3nccn13)CC2 [Example 34, (S)-1′-(8-((2-(Trifluoromethyl)pyridin-3-yl)thio)imidazo[1,2-c]pyrimidin-5-yl)-5,7-dihydro spiro[cyclopenta[b]pyridine-6,4′-piperidin]-5-amine] | 92.5 | 
8.6 | 4 | CNc1nccc(Sc2cnc(N3CCC4(CC3)Cc3ncccc3[C@H]4N)n3ccnc23)c1F [Example 37, (S)-1′-(8-((3-Fluoro-2-(methylamino)pyridin-4-yl)thio)imidazo[1,2-c]pyrimidin-5-yl)-5,7-dihydrospiro[cyclopenta[b]pyridine-6,4′-piperidin]-5-amine] | 37 | 

Second part, the compound before the results:

SMILES | IC50 (p-ERK in KYSE-520 cells; Homo sapiens, KYSE-520, 2 h) [nM] | IC50 [2] [nM] | IC50 (KYSE-520 cells) [nM] | further results
Cc1nc(N2CCC3(CC2)CO[C@@H](C)[C@H]3N)n2ccnc2c1-c1cccc(Cl)c1Cl (single isomer, unassigned) [The atropisomer with a RT of 1.495 minutes in Examples 3 and 4] | 39 | 0.7 | 126 | AUC ([1]; male, SD, plasma, IV 1 mg/kg): 3130 ± 300 ng·h/mL; clearance ([1]; male, SD, plasma, IV 1 mg/kg, read-out: Clearance CL_obs): 5.13 ± 0.59 mL/min/kg; half-life ([1]; male, SD, plasma, IV 1 mg/kg): 5.5 ± 0.59 h; bioavailability ([1]; male, SD, plasma, PO 5 mg/kg vs IV 1 mg/kg, read-out: Bioavailability F): 82.6 ± 17.8%; AUC ([1]; male, SD, plasma, PO 5 mg/kg): 12500 ± 2470 ng·h/mL; half-life ([1]; male, SD, plasma, PO 5 mg/kg): 6.18 ± 0.61 h; Cmax ([1]; male, SD, plasma, PO 5 mg/kg, read-out: Maximum plasma concentration Cmax): 1220 ± 220 ng/mL; Apparent distribution volume Vss_obs ([1]; IV 1 mg/kg): 2.03 ± 0.15 L/kg
Cc1nc(N2CCC3(CCC[C@H]3N)CC2)n2ccnc2c1-c1cccc(Cl)c1Cl [Example 1, (R)-8-(8-(2,3-Dichlorophenyl)-7-methylimidazo[1,2-c]pyrimidin-5-yl)-8-azaspiro[4.5]decan-1-amine] | 383 | 4.5 | 723 | IC50 (hERG potassium channel): 2130 nM
Cc1nc(N2CCC3(CC2)CO[C@@H](C)[C@H]3N)n2ccnc2c1-c1cccc(Cl)c1Cl [Example 2, (3S,4S)-8-(8-(2,3-Dichlorophenyl)-7-methylimidazo[1,2-c]pyrimidin-5-yl)-3-methyl-2-oxa-8-azaspiro[4.5]decan-4-amine] | 40.5 | 1.1 | 186 | IC50 (hERG potassium channel): 2610 nM
Nc1nccc(Sc2cnc(N3CCC4(CC3)Cc3ncccc3[C@H]4N)n3ccnc23)c1Cl [Example 27, (S)-1′-(8-((2-Amino-3-chloropyridin-4-yl)thio)imidazo[1,2-c]pyrimidin-5-yl)-5,7-dihydrospiro[cyclopenta[b]pyridine-6,4′-piperidin]-5-amine] | 8 | 1.7 | 31.5 | 
Nc1nc(N2CCC3(CC2)Cc2ccccc2[C@H]3N)n2ccnc2c1Sc1cccnc1C(F)(F)F [Example 30, (S)-1′-(7-Amino-8-((2-(trifluoromethyl)pyridin-3-yl)thio)imidazo[1,2-c]pyrimidin-5-yl)-1,3-dihydrospiro[indene-2,4′-piperidin]-1-amine] | 6.1 | 1.4 | 8.9 | 
Nc1nccc(Sc2cnc(N3CCC4(CC3)Cc3ccccc3[C@H]4N)n3ccnc23)c1Cl [Example 32, (S)-1′-(8-((2-Amino-3-chloropyridin-4-yl)thio)imidazo[1,2-c]pyrimidin-5-yl)-1,3-dihydrospiro[indene-2,4′-piperidin]-1-amine] | 2.7 | 1 | 12.9 | 
CC1(O)CN(c2nccc(Sc3cnc(N4CCC5(CC4)Cc4ncccc4[C@H]5N)n4ccnc34)c2Cl)C1 [Example 39, (S)-1-(4-((5-(5-Amino-5,7-dihydrospiro[cyclopenta[b]pyridine-6,4′-piperidin]-1′-yl)imidazo[1,2-c]pyrimidin-8-yl)thio)-3-chloropyridin-2-yl)-3-methylazetidin-3-ol] | 7.9 | 1 | 24.1 | IC50 (p-ERK in KYSE-520 cells; 2 hours): 10.3 nM
N[C@@H]1c2cccnc2CC12CCN(c1ncc(Sc3ccnc(N4CCOCC4)c3Cl)c3nccn13)CC2 [Example 40, (S)-1′-(8-((3-Chloro-2-morpholinopyridin-4-yl)thio)imidazo[1,2-c]pyrimidin-5-yl)-5,7-dihydrospiro[cyclopenta[b]pyridine-6,4′-piperidin]-5-amine] | 6.5 | 1.4 | 27.3 | 
